In patent publication US12582146B2, “Angiotensin-converting enzyme inhibitor, blood pressure-lowering agent, and beverages and food products” (priority 2019, dated 2026):

Biological target: angiotensin-converting enzyme (ACE) (UniProt P12822)
Test: Test of effect of inhibiting angiotensin-converting enzyme (Hippuryl-His-Leu substrate, hippuric acid measured by HPLC)
Assay type: biochemical
Description: [Test Example 1] Test of Effect of Inhibiting Angiotensin-Converting Enzyme Conducted on Compound (I)
The effect of inhibiting an angiotensin-converting enzyme was tested on the compound (I) (sample 1) as explained below.
A sample solution (sample 1), obtained by suitably dissolving in and diluting with distilled water, and distilled water respectively in an amount of 50 μL were dispensed into test tubes (10 mL). A substrate solution was dispensed respectively in an amount of 250 μL and mixed. The test tubes were preheated in a thermostatic water-tank at 37° C. for 5 minutes. The preheated test tubes were added with an ACE solution in an amount of 100 μL, agitated immediately and brought to react in the thermostatic water-tank at 37° C. for 45 minutes. After the reaction finished, 3% metaphosphate solution in an amount of 3.6 mL was added and agitated to end reaction. The inactivated solution was subjected to HPLC analysis and isolated hippuric acid was measured. Based on a hippuric acid peak area and solid amount (concentration and weighed amount) from the HPLC, an ACE inhibition rate (%) was obtained.
A substrate solution was prepared to obtain a boric acid buffering solution (pH 8.3) with 8 mM substrate (Hippuryl-His-Leu produced by PEPTIDE INSTITUTE, INC.) and 640 mM sodium chloride. An ACE solution was prepared to obtain a boric acid buffering solution with 30 mU/mL ACE (produced by Sigma-Aldrich Co. LLC).
<Liquid Chromatography Condition >
Column: Wakosil-II 5C18 HG (4.5mm I.D.×150mm produced by Wako Pure Chemical Industries, Ltd.)
• Column Temperature: 40° C. • Mobile Phase: 20 mM KH2PO4·H3PO4 (pH 3.0): Methanol (57:43, v/v) • Flow Rate: 1.0 mL/min. • Detection Wavelength: 228 nm • Feed Amount: 20 μL

Chain of angiotensin-converting enzyme (ACE) (P12822 whole entry): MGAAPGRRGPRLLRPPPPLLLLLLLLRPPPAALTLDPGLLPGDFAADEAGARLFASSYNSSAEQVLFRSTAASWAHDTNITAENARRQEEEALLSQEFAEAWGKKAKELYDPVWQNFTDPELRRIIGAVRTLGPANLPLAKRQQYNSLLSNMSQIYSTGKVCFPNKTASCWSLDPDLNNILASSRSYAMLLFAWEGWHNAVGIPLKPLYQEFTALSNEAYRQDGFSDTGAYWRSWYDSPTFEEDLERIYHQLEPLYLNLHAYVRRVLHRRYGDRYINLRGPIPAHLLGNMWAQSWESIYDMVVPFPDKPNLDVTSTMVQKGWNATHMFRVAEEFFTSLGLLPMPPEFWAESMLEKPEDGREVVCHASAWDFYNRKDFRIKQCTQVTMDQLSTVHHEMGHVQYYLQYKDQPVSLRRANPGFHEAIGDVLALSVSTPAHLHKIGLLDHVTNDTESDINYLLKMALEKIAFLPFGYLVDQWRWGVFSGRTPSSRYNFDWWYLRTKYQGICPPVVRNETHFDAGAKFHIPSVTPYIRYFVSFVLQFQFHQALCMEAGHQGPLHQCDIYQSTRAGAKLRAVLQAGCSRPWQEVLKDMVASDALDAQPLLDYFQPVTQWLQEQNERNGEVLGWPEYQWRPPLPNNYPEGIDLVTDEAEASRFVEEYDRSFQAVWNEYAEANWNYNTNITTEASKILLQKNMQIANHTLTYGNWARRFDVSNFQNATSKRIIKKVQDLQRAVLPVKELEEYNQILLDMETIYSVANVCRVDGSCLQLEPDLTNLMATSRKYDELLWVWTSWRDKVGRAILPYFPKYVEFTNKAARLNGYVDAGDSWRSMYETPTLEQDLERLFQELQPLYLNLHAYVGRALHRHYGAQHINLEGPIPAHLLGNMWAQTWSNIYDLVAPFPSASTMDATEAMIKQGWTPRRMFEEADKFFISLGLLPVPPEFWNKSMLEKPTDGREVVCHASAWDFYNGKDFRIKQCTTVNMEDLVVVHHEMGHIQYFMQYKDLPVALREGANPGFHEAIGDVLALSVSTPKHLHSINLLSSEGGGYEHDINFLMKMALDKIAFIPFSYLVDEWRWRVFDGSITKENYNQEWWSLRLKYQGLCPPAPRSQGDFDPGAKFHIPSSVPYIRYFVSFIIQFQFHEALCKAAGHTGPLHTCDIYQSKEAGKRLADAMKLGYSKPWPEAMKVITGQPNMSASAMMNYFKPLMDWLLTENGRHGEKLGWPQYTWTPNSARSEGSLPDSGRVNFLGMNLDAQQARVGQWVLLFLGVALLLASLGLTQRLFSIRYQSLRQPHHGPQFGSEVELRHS

## COc1cc(CCC(=O)O)ccc1O [compound (I), 3-(4-hydroxy-3-methoxyphenyl)propionic acid]
37° C., 45 minutes reaction, read-out: IC50 (concentration of the sample in the reaction solution exhibiting an ACE inhibition rate of 50%) (converted)
  IC50: 10.9 mM
Sample concentration 943.25 μg/mL
  ACE Inhibition Rate: 21.6%
Sample concentration 1886.50 μg/mL
  ACE Inhibition Rate: 41.1%
Sample concentration 3773.00 μg/mL
  ACE Inhibition Rate: 73.2%
